One experiment has as its system mice. Put plainly: plasma glucose clearance after i.p. insulin (insulin sensitivity). The class given is in vivo. The note with it: wild-type female mice, ADMA 75 mg/kg i.p. after 4 h fasting, insulin injected 2 h later, compared to PBS-treated wild-type mice. Here is the method:
Experiments were performed to assess insulin sensitivity by measuring plasma glucose clearance rate in these DDAH transgenic mice. After 4 hours of fasting, wildtype female mice were injected intraperitoneally with either ADMA (75 mg/kg), which induces insulin resistance, or phosphate buffered saline (PBS); the same dosage was given to the transgenic mice (n=3 in each group). After two hours, insulin was injected; venous blood glucose was assayed by a glucometer every 5 minutes for an hour. The half-life of glucose disappearance from plasma was calculated using a first-order decay model; plasma ADMA was measured by HPLC.

A further experiment deals with ADMA levels. The conditions noted are these: reported in the literature (Stuhlinger et al. 2002; Wheatcroft et al. 2003); cited from earlier work.

We go through two compounds from patent US20050202463A1, “Modulators of dimethylarginine dimethylaminohydrolase and methods of use thereof” (priority 2003, published 2005).

For the compound `CN(C)C(N)=NCCC[C@H](N)C(=O)O` [ADMA, asymmetric dimethylarginine], the “plasma glucose response to insulin” value with mice is “delayed and attenuated drop in plasma glucose in response to insulin”. As to `CN(C)C(=N)N=C(N)N` [metformin], the “effect on ADMA levels” value in the experiment with ADMA levels is on record as “decrease circulating ADMA levels”.
